Structures can show the parent of a compound that is named as a salt.
How the values were obtained:
Format in all cases: biochemical
recombinant human VAP-1 = biological target: T1, recombinant human VAP-1 (Homo sapiens, UniProt Q16853); experiment: Activity on recombinant human VAP-1, HRP-coupled Amplex Red hydrogen peroxide assay, benzylamine substrate; conditions: 30 min incubation at 37° C., 1 mM benzylamine, read-out: Inhibitory Activity (IC50, nM) human VAP-1
T1 construct: purchased R&D systems
T1 sequence (Q16853 1-763): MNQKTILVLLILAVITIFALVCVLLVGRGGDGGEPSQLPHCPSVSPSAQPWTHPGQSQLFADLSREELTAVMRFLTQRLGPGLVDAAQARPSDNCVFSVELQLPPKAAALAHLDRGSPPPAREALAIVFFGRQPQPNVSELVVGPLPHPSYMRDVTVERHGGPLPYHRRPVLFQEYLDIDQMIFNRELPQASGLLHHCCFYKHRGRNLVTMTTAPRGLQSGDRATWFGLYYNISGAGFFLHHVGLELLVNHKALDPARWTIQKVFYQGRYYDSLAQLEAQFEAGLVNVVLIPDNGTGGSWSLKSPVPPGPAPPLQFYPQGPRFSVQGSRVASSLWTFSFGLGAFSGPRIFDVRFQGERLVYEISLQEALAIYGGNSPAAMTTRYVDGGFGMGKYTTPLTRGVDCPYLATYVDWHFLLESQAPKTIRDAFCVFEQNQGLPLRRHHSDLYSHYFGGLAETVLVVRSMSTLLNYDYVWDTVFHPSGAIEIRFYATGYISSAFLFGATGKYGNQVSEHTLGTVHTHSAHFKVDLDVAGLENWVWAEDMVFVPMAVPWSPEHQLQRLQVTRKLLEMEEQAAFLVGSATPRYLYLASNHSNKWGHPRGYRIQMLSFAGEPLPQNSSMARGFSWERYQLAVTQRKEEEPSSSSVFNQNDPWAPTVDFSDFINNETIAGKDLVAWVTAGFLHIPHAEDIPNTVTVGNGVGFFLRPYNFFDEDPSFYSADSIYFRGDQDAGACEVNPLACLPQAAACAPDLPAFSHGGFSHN
Protocol: (§1) The compounds according to the present technology were evaluated in terms of activity on recombinant human VAP-1 (R&D systems) by measuring the level of hydrogen peroxide in horseradish peroxidase (HRP)-coupled reaction using Amplex Red Hydrogen Peroxide Assay Kit (Molecular Probes, Invitrogen, USA). The experiment was carried out at room temperature using benzylamine as a substrate. In the HRP-coupled reaction, hydrogen peroxide oxidation of 10-acetyl-3,7-dihydroxyphenoxazine (Amplex Red reagent) produces resorufin, which is a highly fluorescent compound. Briefly, the test compound was dissolved in dimethyl sulfoxide (DMSO) at a concentration of 20 mM. The dose-response assessment was made by 1:3 serial dilution in DMSO, thereby creating a 8 point curve. The concentration of the upper part was controlled according to the efficacy of the compounds, followed by dilution with a reaction buffer solution to obtain a final DMSO concentration of less than 1%. To each well of a 96 black well plate, human VAP-1 purified in 50 mM sodium phosphate buffer solution (pH7.4) was added. The test compounds dissolved in DMSO were incubated with the human VAP-1 enzymes at 37° C. for 30 minutes. After 30-minute incubation, each well was added with a reaction mixture containing 200 uM Amplex Red reagent prepared from 50 mM sodium phosphate buffer solution (pH 7.4), 1 mM benzylamine, and 1 U/mL HRP. Fluorescence intensity was measured at several time points during 1-2 hours using a microplate reader (Flexstation3, Molecular Devices) under the wavelength condition exciting at 544 nm and reading the emission at 590 nm. The inhibitory effect of the compounds was measured as a decrease (%) in the signal rate as compared to the control group without any inhibitor (only diluted DMSO). Data was fixed to a logistic model with four variables and IC50 value was calculated using GraphPad Prism program.

[1] = biological target: T2, recombinant human MAO-A (monoamine oxidase-A) (Homo sapiens, UniProt P21397); experiment: Activity on recombinant human MAO-A, method similar to VAP-1 assay, 0.5 mM tyramine substrate; conditions: read-out: Inhibitory Activity (IC50, nM) MAO-A
T2 construct: purchased Sigma-Aldrich
T2 sequence (P21397 1-527): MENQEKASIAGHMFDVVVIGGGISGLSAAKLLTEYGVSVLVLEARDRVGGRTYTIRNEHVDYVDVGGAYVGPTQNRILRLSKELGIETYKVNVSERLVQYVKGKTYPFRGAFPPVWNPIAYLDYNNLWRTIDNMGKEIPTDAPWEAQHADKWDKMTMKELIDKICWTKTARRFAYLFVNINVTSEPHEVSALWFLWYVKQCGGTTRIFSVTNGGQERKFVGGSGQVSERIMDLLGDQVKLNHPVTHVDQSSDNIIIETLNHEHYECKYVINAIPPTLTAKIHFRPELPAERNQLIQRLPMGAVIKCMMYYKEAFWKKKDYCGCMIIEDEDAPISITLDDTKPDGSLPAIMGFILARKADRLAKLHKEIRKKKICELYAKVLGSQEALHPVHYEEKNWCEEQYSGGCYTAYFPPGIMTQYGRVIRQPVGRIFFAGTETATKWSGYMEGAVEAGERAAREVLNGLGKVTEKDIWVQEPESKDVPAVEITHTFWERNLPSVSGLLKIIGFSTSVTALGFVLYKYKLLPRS
Protocol: as §1
(§2) In addition, the compounds according to the present technology were evaluated in terms of activity on a recombinant human MAO-A (monoamine oxidase-A, Sigma-Aldrich) and a recombinant human MAO-B(monoamine oxidase-B, Sigma-Aldrich) by using as substrates, 0.5 mM tyramine and 1 mM benzylamine, respectively, with a method similar to the activity evaluation method for recombinant human VAP-1. The compounds according to the present technology were also evaluated in terms of activity on a recombinant human DAO (diamine oxidase, R&D systems) by using as a substrate 1 mM putrescine with a method similar to the activity evaluation method for recombinant human VAP-1.

[2] = biological target: T3, recombinant human MAO-B (monoamine oxidase-B) (Homo sapiens, UniProt P27338); experiment: Activity on recombinant human MAO-B, method similar to VAP-1 assay, 1 mM benzylamine substrate; conditions: read-out: Inhibitory Activity (IC50, nM) MAO-B
T3 construct: purchased Sigma-Aldrich
T3 sequence (P27338 1-520): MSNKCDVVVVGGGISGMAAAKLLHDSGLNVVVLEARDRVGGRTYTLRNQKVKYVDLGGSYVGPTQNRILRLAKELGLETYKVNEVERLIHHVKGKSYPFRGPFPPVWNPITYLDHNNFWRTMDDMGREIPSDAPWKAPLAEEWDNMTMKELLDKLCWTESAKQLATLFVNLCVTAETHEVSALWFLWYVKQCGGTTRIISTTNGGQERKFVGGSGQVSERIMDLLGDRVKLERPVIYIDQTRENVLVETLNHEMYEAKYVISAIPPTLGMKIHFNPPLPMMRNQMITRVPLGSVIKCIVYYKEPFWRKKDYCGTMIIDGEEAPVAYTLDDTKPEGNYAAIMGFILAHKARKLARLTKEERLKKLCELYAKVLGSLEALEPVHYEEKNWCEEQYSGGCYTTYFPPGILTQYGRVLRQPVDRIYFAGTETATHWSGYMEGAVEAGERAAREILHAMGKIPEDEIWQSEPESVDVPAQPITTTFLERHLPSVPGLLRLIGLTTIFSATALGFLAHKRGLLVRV
Protocol: as §1, §2

[3] = biological target: T4, recombinant human DAO (diamine oxidase) (Homo sapiens, UniProt P19801); experiment: Activity on recombinant human DAO, method similar to VAP-1 assay, 1 mM putrescine substrate; conditions: read-out: Inhibitory Activity (IC50, nM) DAO
T4 construct: purchased R&D systems
T4 sequence (P19801 20-751): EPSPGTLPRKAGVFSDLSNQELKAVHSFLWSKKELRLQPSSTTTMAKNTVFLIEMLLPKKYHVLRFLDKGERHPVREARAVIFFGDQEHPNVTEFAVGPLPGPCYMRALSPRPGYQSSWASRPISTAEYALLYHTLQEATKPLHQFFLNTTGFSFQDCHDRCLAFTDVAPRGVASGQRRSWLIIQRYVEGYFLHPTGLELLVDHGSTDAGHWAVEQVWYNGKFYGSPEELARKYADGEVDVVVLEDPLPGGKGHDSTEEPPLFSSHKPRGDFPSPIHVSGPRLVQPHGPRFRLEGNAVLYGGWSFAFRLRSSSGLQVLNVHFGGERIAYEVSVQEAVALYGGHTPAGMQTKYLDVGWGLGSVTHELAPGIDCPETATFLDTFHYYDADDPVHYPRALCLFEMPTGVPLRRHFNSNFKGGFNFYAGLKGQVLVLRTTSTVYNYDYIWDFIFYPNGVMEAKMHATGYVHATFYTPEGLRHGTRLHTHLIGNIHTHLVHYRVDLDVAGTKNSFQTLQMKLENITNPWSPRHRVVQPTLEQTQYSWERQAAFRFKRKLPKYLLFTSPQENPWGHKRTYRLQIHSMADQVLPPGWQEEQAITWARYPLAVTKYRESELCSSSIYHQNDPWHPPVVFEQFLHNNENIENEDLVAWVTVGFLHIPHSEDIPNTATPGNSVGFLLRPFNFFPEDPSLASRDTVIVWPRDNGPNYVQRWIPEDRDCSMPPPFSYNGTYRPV
Protocol: as §1, §2

Row | SMILES | IC50 (recombinant human VAP-1) [nM] | IC50 [1] [nM] | IC50 [2] [nM] | IC50 [3] [nM]
1 | NCC(Cn1nc2cc(Br)ccn2c1=O)=C(F)F [Example 47, 2-[2-(aminomethyl)-3,3-difluoro-allyl]-7-bromo-[1,2,4]triazolo[4,3-a]pyridin-3-one trifluoroacetate] | 7 | > 100000 | > 100000 | 42000
2 | NC/C(=C\F)Cn1nc2cc(-c3ccc4c(c3)NC(=O)OC4)ccn2c1=O [Example 41, 7-[2-[(2E)-2-(aminomethyl)-3-fluoroprop-2-en-1-yl]-3-oxo-2,3-dihydro[1,2,4]triazolo[4,3-a]pyridin-7-yl]-1,4-dihydro-2H-3,1-benzoxazin-2-one hydrochloride] | 0.3 | 6800 | 730 | 1.3
3 | CN1CCOc2cc(-c3ccn4c(=O)n(C/C(=C/F)CN)nc4c3)ccc21 [Example 44, 2-[(2E)-2-(aminomethyl)-3-fluoroprop-2-en-1-yl]-7-(4-methyl-3,4-dihydro-2H-1,4-benzoxazin-7-yl)[1,2,4]triazolo[4,3-a]pyridin-3(2H)-one hydrochloride] | 1 | > 100000 | < 10 | 400
4 | NC/C(=C\F)Cn1nc2ccc(-c3ccc(C(F)(F)F)nc3)cn2c1=O [Example 9, 2-[(2E)-2-(aminomethyl)-3-fluoroprop-2-en-1-yl]-6-[6-(trifluoromethyl)pyridin-3-yl][1,2,4]triazolo[4,3-a]pyridin-3(2H)-one hydrochloride] | 12 | > 100000 | 37 | 0.2
5 | COc1ccc(-c2ccn3c(=O)n(C/C(=C/F)CN)nc3c2)cn1 [Example 31, 2-[(2E)-2-(aminomethyl)-3-fluoroprop-2-en-1-yl]-7-(6-methoxypyridin-3-yl)[1,2,4]triazolo[4,3-a]pyridin-3(2H)-one hydrochloride] | 0.3 | > 100000 | 61 | 5
6 | NC/C(=C\F)Cn1nc2cc(-c3ccnc4[nH]ccc34)ccn2c1=O [Example 40, 2-[(2E)-2-(aminomethyl)-3-fluoroprop-2-en-1-yl]-7-(1H-pyrrolo[2,3-b]pyridin-4-yl)[1,2,4]triazolo[4,3-a]pyridin-3(2H)-one hydrochloride] | 0.3 | > 100000 | 760 | 9.4
7 | NC/C(=C\F)Cn1nc2cc(C3=CCNCC3)ccn2c1=O [Example 34, 2-[(2E)-2-(aminomethyl)-3-fluoroprop-2-en-1-yl]-7-(1,2,3,6-tetrahydropyridin-4-yl)[1,2,4]triazolo[4,3-a]pyridin-3(2H)-one dihydrochloride] | 2 | > 100000 | > 100000 | 1

These reach a lower IC50 (recombinant human VAP-1). Values come first.

Row | IC50 (recombinant human VAP-1) [nM] | IC50 [1] [nM] | IC50 [2] [nM] | IC50 [3] [nM] | SMILES
8 | 0.2 | 18000 | 220 | 9.1 | NC/C(=C\F)Cn1nc2cc(-c3ccc(-c4ccon4)cc3)ccn2c1=O [Example 25, 2-[(2E)-2-(aminomethyl)-3-fluoroprop-2-en-1-yl]-7-[4-(1,2-oxazol-3-yl)phenyl][1,2,4]triazolo[4,3-a]pyridin-3(2H)-one hydrochloride]
9 | 0.1 | 96000 | 1100 | 0.2 | NC/C(=C\F)Cn1nc2cc(-c3ccc4nn[nH]c4c3)ccn2c1=O [Example 39, 2-[(2E)-2-(aminomethyl)-3-fluoroprop-2-en-1-yl]-7-(1H-benzotriazol-6-yl)[1,2,4]triazolo[4,3-a]pyridin-3(2H)-one hydrochloride]
10 | 0.2 | > 100000 | 320 | 12 | Cc1cc(-c2ccn3c(=O)n(CC(CN)=C(F)F)nc3c2)cc2c1NC(=O)CC2 [Example 53, 6-[2-[2-(aminomethyl)-3,3-difluoro-allyl]-3-oxo-[1,2,4]triazolo[4,3-a]pyridin-7-yl]-8-methyl-3,4-dihydro-1H-quinolin-2-one trifluoroacetate]
11 | 0.1 | > 100000 | 170 | 22 | CN1C(=O)CCc2cc(-c3ccn4c(=O)n(CC(CN)=C(F)F)nc4c3)ccc21 [Example 54, 6-[2-[2-(aminomethyl)-3,3-difluoro-allyl]-3-oxo-[1,2,4]triazolo[4,3-a]pyridin-7-yl]-1-methyl-3,4-dihydroquinolin-2-one trifluoroacetate]

Source: patent publication US11091479B2, “Triazolopyridin-3-ones or their salts and pharmaceutical compositions comprising the same” (YUHAN CORPORATION, priority 2018, dated 2021)
